Measurements from patent US10857170B1, “Molecules, compositions and methods for modulation of SIRT6” (SirTLab Corporation, priority 2015, dated 2020).

Molecular target: T1, Human recombinant SIRT6 (Homo sapiens, UniProt Q8N6T7)
T1 construct: six-histidine (His6); made in house; host or cells: Escherichia coli BL21
Test: SIRT6 enzymatic activity assay (fluorogenic de-myristoylation of histone H3 peptide-AMC, trypsin-coupled)
Assay type: biochemical
Conditions: for % activity 20 uM: compound 20 uM; for % activity 20 uM / % activity 100 uM / % activity Max. conc. 100 uM: percentage of signal increase relative to control wells; for % activity 100 uM / % activity Max. conc. 100 uM: compound 100 uM
Protocol: Human recombinant SIRT6 (sequence identifier: CAG33481.1; GI:4814651) was expressed in large scale in Escherichia coli strain BL21 as a six-histidine-tagged protein, after transformation of the expression plasmid pET28-SIRT6. The SIRT6 enzyme was purified from the bacteria culture broth in a two-step strategy. The first purification step was carried out by cation exchange chromatography on a HiTrap CM-Sepharose column (GE Healthcare) using an FPLC system. The second purification step was performed by immobilized metal ion affinity chromatography (IMAC) using a cobalt affinity column (Clontech).
The enzymatic activity assay is carried out in 96 or 384-well microplates using the purified recombinant SIRT6 and a fluorophore-labeled peptide substrate: 7-amino-4-methylcoumarin (AMC) that is quenched through conjugation to the C-terminal end of a Lysin-myristoylated histone H3 peptide. The activity assay procedure requires two steps, both performed in the same microplate. In the first step, the substrate is incubated with the purified SIRT6 protein along with the co-substrate nicotinamide adenine dinucleotide (NAD+). Upon de-myristoylation, the liberated ε-amino group of the lysine becomes a trypsin substrate. Treatment with trypsin in the second step releases the fluorophore resulting in an increase in fluorescence. Fluorescence intensity is measured using a fluorescent plate reader (excitation and emission at 370 nm and 450 nm, respectively). The fluorescence signal is directly proportional to SIRT6 enzymatic activity.
In the primary screening, compounds from a library (ChemDiv Inc.) were tested at a single concentration of 20 micromolar for their potential to modulate SIRT6 enzymatic activity. The assay was carried out in 384-well black well plates and all liquid handling was done using a robotic liquid handler. Purified recombinant SIRT6 (1 micromolar) was pre-incubated with each compound (or DMSO in control wells) for 15 minutes at room temperature. The first stage of the assay was initiated by adding a ‘substrate solution’ containing the myristoylated histone H3 peptide and NAD+(for final concentrations of 25 micromolar and 20 micromolar, respectively). After one hour incubation at 37° C., a Trypsin solution (6 mg/mL) was added for 30 minutes at room temperature. Fluorescence intensity was measured using a fluorescent plate reader (Tecan) with excitation at 370 nm and emission at 450 nm. The effect of each tested compound was evaluated by the change in the fluorescence intensity compared to control wells. […] To validate the primary screening results, each of the primary “hits” was re-tested, first at concentration of 20 micromolar in duplicates and later at a serial dilution ranging from 100 to 0.2 micromolar in triplicates.

T1 sequence (Q8N6T7 whole entry): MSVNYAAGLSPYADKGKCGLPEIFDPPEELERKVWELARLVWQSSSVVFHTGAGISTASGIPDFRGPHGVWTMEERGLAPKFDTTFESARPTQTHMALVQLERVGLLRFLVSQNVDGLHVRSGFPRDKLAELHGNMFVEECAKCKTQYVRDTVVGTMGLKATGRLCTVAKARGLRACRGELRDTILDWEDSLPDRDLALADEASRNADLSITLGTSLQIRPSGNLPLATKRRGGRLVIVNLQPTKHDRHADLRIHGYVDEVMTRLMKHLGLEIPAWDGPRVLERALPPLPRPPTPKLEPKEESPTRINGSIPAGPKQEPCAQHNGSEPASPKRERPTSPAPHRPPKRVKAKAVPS

| SMILES | % activity 20 uM (Table 2) | % activity 100 uM (Table 2) | % activity 20 uM (Table 1) | % activity Max. conc. 100 uM (Table 1) | % activity (20 micromolar only) (Table 3, compound 20 micromolar) |
| --- | --- | --- | --- | --- | --- |
| C=C(NCCC)c1ccc(-c2ccc(N3CCCCC3)nc2)cc1 [compound 47] | 63% | 50% | – | – | – |
| C=C(CC)Nc1ccc(-c2cc(C(=O)NCCCN3CCCCCC3)c3ccccc3n2)cc1 [compound 40] | 62% | 92% | – | – | – |
| C=C(Oc1ccc2cnccc2c1)C1=C(N)c2ccccc2C1 [compound 35] | 154% | 324% | – | – | – |
| C=C(CN1C(=C)C(c2nc(-c3ccccc3)no2)=C(C)C=C1C)NCCc1ccc(CC)c(CC)c1 [compound 32] | 101% | 73% | – | – | – |
| CCN1CCCC1CNC(=O)C1CCN(c2cc(C)nc3c(-c4ccc(Cl)cc4)c(C)nn23)CC1 (centres unmarked) [compound 22] | 32% | 29% | – | – | – |
| O=C1Nc2ccc(Cl)cc2C(c2ccccc2)C1Nc1ccc(Oc2ccccc2)cc1 (centres unmarked) [compound 13] | 24% | 86% | – | – | – |
| CC[C@H]1O[C@@H](Cc2ccc3c(c2C)CC(=O)C(C)=C3C)[C@H](C)[C@@H](O)[C@H]1C [compound 26] | 21% | 56% | – | – | – |
| Cc1ccc(Nc2nc(C)c(C(=O)Nc3cccc(C(C)C)c3)s2)cc1 [compound 54] | 31% | 11% | – | – | – |
| C=C1N(C)C(=O)c2c(nc3n2CC(c2ccc(Br)cc2)=NN3)N1C [compound 11] | 41% | 99% | – | – | – |
| C=C(Nc1ccc(CC)c(Cl)c1)c1cc(N)cc2cn[nH]c12 [compound 36] | 45% | 56% | – | – | – |
| CC1=NCC(c2ccc(O)cc2O)=C1c1ccc(Cl)cc1 [compound 18] | 53% | 94% | – | – | – |
| C=C1Oc2cc(C[C@@H]3C[C@H](CO)[C@H](O)[C@H](C)[C@H]3O)ccc2C2=C1CCCC2 [C] | – | – | 70% | 195% | – |
| Cc1cc(Nc2ccc(NC(=O)Nc3ccc4c(c3)CCCO4)cc2)nc(NC2CCCCC2)n1 [compound 25] | 26% | 22% | – | – | – |
| C=C(OC(C)CC)C1=C(C)NC2=C(C(=C)C(C(=C)OC)C(C)C2)C1c1ccc(N(CC)CC)cc1 (centres unmarked) [compound 19] | 37% | 61% | – | – | – |
| C=C(Cc1ccc2c(c1)C(C)=CC(C)(C)N2)Cc1cccc2ccccc12 [compound 4] | 29% | 56% | – | – | – |
| C=C(Nc1ccc(Cl)cc1)N1c2ccc(OCC)cc2C(C)=CC1(C)C [compound 2] | 29% | 46% | – | – | – |
| Cc1cc(NC(=O)CSc2nnc(-c3sc4ncccc4c3N)n2C)ccc1Cl [compound 24] | 77% | 47% | – | – | – |
| O=c1cc(O)c2sc3nc4c(cc3c2[nH]1)CCCCC4 [compound 15] | 37% | 75% | – | – | – |
| CC(C)(C)c1ccc(C(=O)Nc2ccc3nnc(C4CCC4)n3c2)cc1 [compound 51] | 23% | 87% | – | – | – |
| Cn1c(-c2ccc3[nH]c(-c4ccc(N)cc4)nc3c2)nc2cc(N)ccc21 [compound 7] | 118% | 162% | – | – | – |
| Cc1ccccc1CSc1ncc(Sc2ccccc2)c(C(=O)NCc2ccccc2)n1 [compound 23] | 55% | 65% | – | – | – |
| C=C(CCOc1ccccc1)N(CCCN(C)C)C1=Nc2c(C)cccc2C1 [A] | – | – | 263% | 255% | – |
| C=C(c1ccc(-c2ccc(N3CCCCC3)nc2)cc1)N(C)C [compound 48] | 40% | 54% | – | – | – |
| C=C(CS)Nc1ccc(CCCCC)cc1 [compound 9] | 22% | 48% | – | – | – |
| O=C(Nc1ccc2nnc(C3CCC3)n2c1)C1CC1 [compound 52] | 69% | 142% | – | – | – |
| Cc1nc2sc(-c3nc4ccccc4[nH]3)c(N)c2c(C)c1Cl [compound 12] | 36% | 59% | – | – | – |
| C=C(CN1c2ccccc2C(C)(C)C12C=Cc1c(ccc3ccccc13)C2)NC (centres unmarked) [compound 10] | 25% | 27% | – | – | – |

| SMILES | % activity 20 uM (Table 2) | % activity 100 uM (Table 2) | % activity 20 uM (Table 1) | % activity Max. conc. 100 uM (Table 1) | % activity (20 micromolar only) (Table 3, compound 20 micromolar) |
| --- | --- | --- | --- | --- | --- |
| C=C(CC)Nc1ccc(-c2cc(C(=O)NCCCN3CCCC(C)C3)c3ccccc3n2)cc1 (centres unmarked) [compound 42] | 61% | 87% | – | – | – |
| COc1cc(NC(=O)c2csc(-c3cn(C)c4ncccc34)n2)cc(OC)c1 [compound 55] | 31% | 37% | – | – | – |
| Cc1nc(Nc2ccc(F)cc2)sc1C(=O)Nc1ccc(F)cc1F [compound 53] | 36% | 22% | – | – | – |
| C=C(Nc1ccc(CCC)cc1)C1=C(C)c2c(nc(C)nc2N(C)c2ccc(C(C)C)cc2)C1 [compound 39] | 32% | 54% | – | – | – |
| O=C(c1ccc(-c2ccc(N3CCCCC3)nc2)cc1)N1CCCC1 [compound 49] | 93% | 75% | – | – | – |
| N#Cc1cccc(-c2cn3c(n2)N(C(=O)c2ccncc2)CCC3)c1 [compound 57] | 37% | 45% | – | – | – |
| C=C1Cc2ccc(C)cc2C2=C1C(c1ccc(F)cc1)=C(NCCOC)C2 [compound 28] | 134% | 246% | – | – | – |
| C=C(C)C1Cc2cc(C(F)(F)F)ccc2N2CCCCC12 (centres unmarked) [compound 59] | 89% | 175% | – | – | – |
| Cc1noc(-c2cccc(OC3CN(C(=O)c4cccc5[nH]ccc45)C3)c2)n1 [compound 58] | 38% | 47% | – | – | – |
| COc1ccc(-c2nn3c(C)nnc3s2)cc1N [compound 17] | 21% | 18% | – | – | – |
| CCCC1(CO)CCCN1C(=O)c1ccc2cc[nH]c2c1 (centres unmarked) [compound 56] | 30% | 53% | – | – | – |
| C=S(=C)(c1cc(Cl)ccc1Cl)n1c(/C=C/c2ccc(SC)cc2)nc2ccccc21 [compound 21] | 38% | 36% | – | – | – |
| COCCNc1oc2c(c1-c1ccc(C)cc1)c(=O)oc1c(C)cccc12 [compound 30] | 149% | 111% | – | – | – |
| Cc1ccnc(NC(c2ccc(C)cc2C)c2ccc3cccnc3c2O)c1 (centres unmarked) [compound 6] | 30% | 28% | – | – | – |
| O=C(Nc1ccc2nncn2c1)c1cccc(Cl)c1 [compound 50] | 30% | 51% | – | – | – |
| C=C1Cc2cc(C)cc(CC(=O)[C@@H](NS(=C)(=C)c3ccc(C)cc3)[C@H](C)CC)c2C2=C1CCC2 [compound 62] | 28% | 113% | – | – | – |
| C=C(NCCN1CCN(C)CC1)c1cc(-c2ccc(NC(C)=O)cc2)nc2ccc(C)cc12 [compound 43] | 96% | 119% | – | – | – |
| Cc1cccc2c1N=C(N(CCCN(C)C)C(=O)CCOc1ccccc1)C2 [B] | – | – | 287% | 252% | – |
| C=C1Cc2c(cccc2CC)C=C1C1=CCC(NC(=O)CCC(=O)NCCCN2CCC(C)CC2)=N1 [compound 37] | 42% | 35% | – | – | – |
| O=C(NCc1ccc2c(c1)CCC2)c1ccc(NC(=O)C2CC2)cc1N1CCCCCC1 [compound 63] | – | – | – | – | 38% |
| Cc1nc(-c2cccc(F)c2)c(N)c(N(C)C2CCN(C)CC2)n1 [compound 61] | 50% | 210% | – | – | – |
| CC1=CC(C)(C)Nc2ccc(OC(=O)c3cccs3)cc21 [compound 5] | 39% | 54% | – | – | – |
| Cc1nc(-c2cccc(C(F)(F)F)c2)c(N)c(N(C)C2CCN(C)CC2)n1 [compound 60] | 52% | 255% | – | – | – |
| Cc1ccc(NC(=O)c2nnc(-c3ccc(NC(=O)c4cccs4)cc3)s2)cc1 [compound 31] | 29% | 16% | – | – | – |
| C=C1Oc2ccc(C)cc2-c2oc(NCCOC)c(-c3ccc(OCC)cc3)c21 [compound 29] | 82% | 226% | – | – | – |
| C=C1Nc2nc(OC(C)=O)c(C)c(C)c2S1 [compound 16] | 40% | 197% | – | – | – |
| COc1ccc(-c2csc3c(NN)ncnc23)cc1 [compound 20] | 78% | 22% | – | – | – |
